A short description of one assay: Weight loss screen. The settings on record: 60 mg/kg. It is filed as in vivo, Balb/C mice. On the procedure:
Weight Loss Screen for Novel FAS Inhibitors Balb/C mice (Jackson Labs) are utilized for the initial weight loss screening. Animals are housed in temperature and 12 hour day/night cycle rooms and fed mouse chow and water ad lib. Three mice are utilized for each compound tested with vehicle controls in triplicate per experiment. For the experiments, mice are housed separately for each compound tested three mice to a cage. Compounds are diluted in DMSO at 10 mg/ml and mice are injected intraperitoneally with 60 mg/kg in approximately 100 μl of DMSO or with vehicle alone. Mice are observed and weighed daily; average weights and standard errors are computed with Excel (Microsoft). The experiment continues until treated animals reach their pretreatment weights. Select compounds are tested in animals housed in metabolic cages. Dosing of animals are identical to the screening experiments with three animals to a single metabolic cage. Animal weights, water and food consumption, and urine and feces production are measured daily.

The test system of assay [1] is Pseudomonas aeruginosa (ATCC #27853). Kind of assay: Broth microdilution MIC, P. aeruginosa. It is filed as cell-based. On the procedure:
(§1) A broth microdilution assay is used to assess the antimicrobial activity of the compounds. Compounds are tested at twofold serial dilutions, and the concentration that inhibits visible growth (OD600 at 10% of control) is defined as the MIC. Microorganisms tested include Staphylococcus aureus (ATCC #29213), Enterococcus faecalis (ATCC #29212), Pseudomonas aeruginosa (ATCC #27853), and Escherichia coli (ATCC #25922). The assay is performed in two growth media, Mueller Hinton Broth and Trypticase Soy Broth.
(§2) A blood (Tsoy/5% sheep blood) agar plate is inoculated from frozen stocks maintained in T soy broth containing 10% glycerol and incubated overnight at 37° C. Colonies are suspended in sterile broth so that the turbidity matches the turbidity of a 0.5 McFarland standard. The inoculum is diluted 1:10 in sterile broth (Mueller Hinton or Trypticase soy) and 195 ul is dispensed per well of a 96-well plate. […]
(§3) After 24 hours of incubation at 37° C., plates are read at OD600 on a Molecular Devices SpectraMax Plus Spectrophotometer. Average OD600 values are computed using SOFTmax Pro Software (Molecular Devices) and MIC values are determined by linear regression analysis using Prism version 3.02 (Graph Pad Software, San Diego). […]

For assay [2], the system named is fatty acid synthesis in MCF-7 human breast cancer cells. As to the kind of experiment: [14C]acetate incorporation into total lipids. It is filed as cell-based. The settings on record: MCF-7 cells. Here is the method:
Measurement of [^14C]acetate Incorporation into Total Lipids and Determination of IC50 of Compounds
This assay measures the incorporation of [^14C]acetate into total lipids and is a measure of fatty acid synthesis pathway activity in vitro. It is utilized to measure inhibition of fatty acid synthesis in vitro.
MCF-7 human breast cancer cells cultured as above, are plated at 5×10^4 cells per well in 24-well plates. Following overnight incubation, the compounds to be tested, solubilized in DMSO, are added at 5, 10, and 20 μg/ml in triplicate, with lower concentrations tested if necessary. DMSO is added to triplicate wells for a vehicle control. C75 is run at 5 and 10 μg/ml in triplicate as positive controls. After 4 hours of incubation, 0.25 μCi of [^14C]acetate (10 μl volume) is added to each well.
After 2 hours of additional incubation, medium is aspirated from the wells and 800 μl of chloroform:methanol (2:1) and 700 μl of 4 mM MgCl2 is added to each well. Contents of each well are transferred to 1.5 Eppendorf tubes, and spun at full-speed for 2 minutes in a high-speed Eppendorf Microcentrifuge 5415D. After removal of the aqueous (upper) layer, an additional 700 μl of chloroform:methanol (2:1) and 500 μl of 4 mM MgCl2 are added to each tube and then centrifuged for 1 minutes as above. […] Once dried, 3 ml of scintillant (APB #NBC5104) is added and vials are counted for ^14C. […]

Assay [3] relates to Escherichia coli (ATCC #25922). Kind of assay: Broth microdilution MIC, E. coli. It is filed as cell-based. On the procedure: as §1, §2, §3

“And” between values parts separate entries of the source, which are not always exact repeats. Equal values may be shown once.

With `C=CCC1(CC=C)C(=O)SC(C)(CCCCCCCCCC)C1=O` (centres unmarked) [Compound 15, 3,3-Diallyl-5-methyl-5-decyl-thiophene-2,4-dione], the “Weight Loss” value in the assay “Weight loss screen” (day 2) is 60 mg/kg: 3.5% (day 2).
The same measure, in the same setting: with `CCCCCCCCCCC1(C)SC(=O)C(C)(C)C1=O` (centres unmarked) [Compound 12, 3,3,5-Trimethyl-5-decyl-thiophene-2,4-dione] the figure was 60 mg/kg: 9.0% (day 2).
As for `C=CCC1(CC=C)C(=O)SC(C)(CCCCCCCC)C1=O` (racemic) [Compound 4, 3,3-Diallyl-5-methyl-5-octyl-thiophene-2,4-dione], in assay [1] (Mueller Hinton Broth), the “PSAE/MH (MIC)” value is recorded as “Neg”. Besides, the PSAE/Tsoy entry in assay [1] (Trypticase Soy Broth) is “Neg”. Also, the “14C (IC50)” value in assay [2] is given as “Neg”. Besides, the “Weight Loss” value in “Weight loss screen” (day 1) is 7.9% and 8.0% and 6.8%. In addition, in assay [3] (Mueller Hinton Broth), the “Ecoli/MH (MIC)” value is “Neg”. In assay [3] (Trypticase Soy Broth), the Ecoli/Tsoy result is “Neg”.
